Test results reported in patent publication US20260169012A1, “WHOLE BLOOD CONTROL SAMPLE SYSTEMS AND METHOD OF PREPARING AND USING THE SAME” (Perosphere Technologies Inc., priority 2020, published 2026).
Where two headings read alike, the source gives them in different places.

Tests used:
[1] = test system: surrogate whole blood control; assay: Clotting time of surrogate whole blood control on PoC Coagulometer, benzamidine in lyophilizate (Example 2); design: species or system horse, sheep; conditions: for Clotting time: activated with 22 mM calcium chloride
Procedure: Plasma was prepared by mixing sheep plasma and horse plasma at a mixing ratio of 1:9. Sheep fibrinogen solution (45.72 mg/mL in 20 mM sodium citrate-HCl, pH 7.4) was diluted to 40 mg/mL with saline. Plasma base was further prepared by mixing 77% (w/v) plasma and 23% (w/v) sheep fibrinogen solution (40 mg/mL). Whole blood control was prepared by resuspending 35% (w/v) 2% glutaraldehyde-fixed horse red blood cells in 65% (w/v) plasma base, with addition of rabbit brain cephalin to a final concentration of 0.144 mg/mL. Benzamidine of varying concentrations were added to the preparation. The whole blood control was then freeze-dried in glass vials. To test the effect of benzamidine in lyophilizate on clotting time, the freeze-dried surrogate whole blood control was reconstituted in a diluent solution to half of its original volume, incubated at room temperature for 6 minutes, and mixed by swirling the glass vial gently for an additional 1 minute. The control was then activated by addition of 22 mM calcium chloride at the volume ratio of 1:1, followed by six times of rapid inversion. The samples were tested on Perosphere Technologies' PoC Coagulometers immediately after activation.

[2] = test system: surrogate whole blood control; assay: Clotting time of surrogate whole blood control on PoC Coagulometer, benzamidine in activation solution (Example 4); design: species or system horse, sheep; conditions: for Clotting time: 22 mM CaCl2
Procedure: (§1) Plasma was prepared by mixing sheep plasma and horse plasma at a mixing ratio of 1:9. Sheep fibrinogen solution (45.72 mg/mL in 20 mM sodium citrate-HCl, pH 7.4) was diluted to 40 mg/mL with saline. Plasma base was further prepared by mixing 77% (w/v) plasma and 23% (w/v) sheep fibrinogen solution (40 mg/mL). Whole blood control was prepared by resuspending 35% (w/v) 3% glutaraldehyde-fixed horse red blood cells in 65% (w/v) plasma base, with addition of rabbit brain cephalin to a final concentration of 0.144 mg/mL. The whole blood control was then freeze-thawed once and freeze-dried in glass vials. To test the effect of benzamidine concentration in activation solution on clotting time, the freeze-dried surrogate whole blood control was reconstituted in a diluent solution to half of its original volume, incubated at room temperature for 6 minutes, and mixed by swirling the glass vial gently for an additional 1 minute. The control was then activated by addition of an activation solution containing 22 mM CaCl2) and varying concentrations of benzamidine at the volume ratio of 1:1, followed by six times of rapid inversion. The samples were tested on Perosphere Technologies' PoC Coagulometers immediately after activation.

[3] = test system: surrogate whole blood control
Procedure: as §1, with “mg/mL by” for “mg/mL with”, “(w/v) 2%” for “(w/v) 3%”, “of calcium chloride” for “of benzamidine”, “of calcium chloride” for “of an activation”, “solution of” for “solution containing 22 mM CaCl2) and”, “concentrations” for “concentrations of benzamidine”

| SMILES | Response of clotting time to benzamidine concentration in lyophilizate (dose-response curve) ([1]; 0-2.2 mM in lyophilizate, FIG. 1) | Clotting time ([1]; benzamidine concentration in lyophilizate 1.1 mM) | Clotting time ([1]; benzamidine concentration in lyophilizate 2.2 mM) | Response of clotting time to benzamidine concentration in activation solution ([2]; 0-6.6 mM in activation solution, FIG. 2) | Clotting time ([2]; benzamidine concentration in activation solution 1.1 mM) | Clotting time ([2]; benzamidine concentration in activation solution 2.2 mM) | Clotting time ([2]; benzamidine concentration in activation solution 4.4 mM) | Clotting time ([2]; benzamidine concentration in activation solution 6.6 mM) | Clotting time ([3]; CaCl2 concentration in activation solution 14 mM) | Clotting time ([3]; CaCl2 concentration in activation solution 22 mM) | Clotting time ([3]; CaCl2 concentration in activation solution 30 mM) | Clotting time ([3]; CaCl2 concentration in activation solution 40 mM) |
| --- | --- | --- | --- | --- | --- | --- | --- | --- | --- | --- | --- | --- |
| N=C(N)c1ccccc1 [Benzamidine, benzamidine] | linear | 339.33 s | 495.00 s | linear response | 206.00 s | 249.00 s | 357.67 s | 422.50 s | – | – | – | – |
| [Ca+2].[Cl-].[Cl-] [CaCl2, calcium chloride] | – | – | – | – | – | – | – | – | 199.00 s | 154.00 s | 166.00 s | 203.33 s |
